The text below walks through data of patent US8614206B2 (Genentech, Inc., priority 2011, dated 2013).

The subject of one experiment is BaF3 PIM1 cells. Description: cells. Particulars: Mus musculus.
Experiment [1] relates to MM1.S (multiple myeloma) cells. Description: In vitro cell proliferation, MM1.S multiple myeloma cells (CellTiter-Glo, ATP). Type of experiment: cell-based. Particulars: Homo sapiens, MM1.S, 72 h, read-out: Prolif MM1S ATP (EC50). In short, it runs like this: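 BaF3 parental cells (medium with 2 ng/mL mIL-3) seeded at 2 k/well and MM1.S at 10 k/well, then exposed to test compound at 37° C, 5% CO2: BaF3 overnight, MM1.S for 72 hours. Viability read by CellTiter-Glo; IC50/EC50 values calculated.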

The next experiment deals with PIM1 (Homo sapiens (Human), UniProt P11309). Description: Pim kinase inhibition, PIM1 LC3K (Example 901). The class given is biochemical.
The next experiment has as its system BaF3 parental cells. Briefly: In vitro cell proliferation, BaF3 parental line + IL3 (CellTiter-Glo). Particulars: Mus musculus, BaF3, BaF3 parental cells with IL-3, incubated overnight. The class given is cell-based, murine.
[2] abbreviates: BaF3, read-out: Prolif BaF3_PIM1 (IC50), BaF3 PIM1 cells, incubated overnight.
Setting [3] is: read-out: Prolif BaF3 + IL3 (IC50).
[4] abbreviates: BaF3, read-out: Prolif BaF3 PIM1 (IC50), BaF3 PIM1 cells, incubated overnight.
The mark [5] stands for this setting: read-out: Prolif BaF3 IL3 (IC50).

Where two headings read alike, the source gives them in different places. Bounds are passed on as bounds.

PIM1, sequence (P11309 whole entry): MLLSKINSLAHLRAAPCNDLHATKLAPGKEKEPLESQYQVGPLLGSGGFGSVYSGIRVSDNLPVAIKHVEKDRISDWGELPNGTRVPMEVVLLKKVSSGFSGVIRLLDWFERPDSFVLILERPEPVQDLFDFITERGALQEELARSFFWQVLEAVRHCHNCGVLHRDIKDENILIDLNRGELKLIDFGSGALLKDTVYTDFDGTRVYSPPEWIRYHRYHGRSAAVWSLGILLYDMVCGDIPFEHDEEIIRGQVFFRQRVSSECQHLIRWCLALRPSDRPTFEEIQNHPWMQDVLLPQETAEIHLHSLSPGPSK
Description for BaF3 parental cells: BaF3 parental line was obtained from the DSMZ repository. BaF3 lines transfected with PIM 1 or PIM2 were generated. Mouse IL-3 was purchased from R&D Systems. G418 was purchased from Clontech. Media for BaF3 parental line contained RPMI, 10% FBS, 2 mM L-Glutamine, 2 ng/mL mIL-3. Media for BaF3 PIM1 & 2 lines contained RPMI, 10% FBS, 2 mM L-Glutamine, 250 μg/mL.
BaF3, a murine interleukin-3 dependent pro-B cell line, parental cells, BaF3 PIM1 cells, BaF3 PIM2 cells, and MM1.S (multiple myeloma) cells were seeded at 2 k/well, 5 k/well, 5 k/well, and 10 k/well respectively, in a 384-well plate, at 45 μL/well. Test compound was added at 5 μL/well. BaF3 cells (parental and transfected) were incubated overnight, while MM1.S cells were incubated for 72 hours at 37° C., 5% CO2. CELL TITER GLO® Reagent (Promega) was added at 50 μL/well, the plates were incubated for 30 minutes, and their luminescence read on an HT Analyst. IC50/EC50 values for the test compound were calculated.

`COC1CCN(c2c(NC(=O)c3nc(-c4ccccn4)sc3N)cnn2C)CCC1N` (racemic) [Example 322, 5-amino-N-[5-(4-amino-5-methoxy-azepan-1-yl)-1-methyl-pyrazol-4-yl]-2-(2-pyridyl)thiazole-4-carboxamide]: the IC50 is 1400 nM in the experiment on BaF3 PIM1 cells (setting [2]) and greater than 25000 nM in the experiment on BaF3 parental cells (setting [3]). Besides, the EC50 in experiment [1] is 123 nM. Further, at PIM1, the Ki amounted to 0.833 nM.

`Cn1ncc(NC(=O)c2nc(-c3ccccc3F)sc2N)c1N1CCCC(C)(N)CC1` (racemic) [Example 412, 5-amino-N-[5-(4-amino-4-methyl-azepan-1-yl)-1-methyl-pyrazol-4-yl]-2-(2-fluorophenyl)thiazole-4-carboxamide]: the figures for the IC50 in the experiment on BaF3 PIM1 cells (setting [2]) and with BaF3 parental cells (setting [3]) were 1500 nM and 7100 nM, respectively. Besides, the EC50 in experiment [1] was 1100 nM. This compound registered an inhibition constant (Ki) at PIM1 of 0.057 nM.

On to `Cn1ncc(NC(=O)c2nc(-c3c(F)cncc3F)sc2N)c1N1CCC(N)CC(F)(F)C1` (racemic) [Example 438, 5-amino-N-[5-(5-amino-3,3-difluoro-azepan-1-yl)-1-methyl-pyrazol-4-yl]-2-(3,5-difluoro-4-pyridyl)thiazole-4-carboxamide], for which the concentration for half-maximal inhibition (IC50) with BaF3 PIM1 cells (setting [2]) came to 3.03 nM; in the experiment on BaF3 parental cells (setting [3]) it was 20300 nM. The half-maximal effective concentration (EC50) in experiment [1] came to 80.6 nM. The Ki at PIM1 came to 0.008 nM.

Turning to `Cn1ncc(NC(=O)c2nc(-c3c(F)cncc3F)sc2N)c1N1CC[C@H](N)[C@@H](F)CC1` (racemic) [Example 439, 5-amino-N-(5-((4S,5S)-4-amino-5-fluoroazepan-1-yl)-1-methyl-1H-pyrazol-4-yl)-2-(3,5-difluoropyridin-4-yl)thiazole-4-carboxamide], the half-maximal inhibitory concentration (IC50) with BaF3 PIM1 cells (setting [2]) amounted to 38.8 nM; in the experiment on BaF3 parental cells (setting [3]) it was 16200 nM. Also, in experiment [1], the EC50 was determined as 3900 nM. The compound also returned a Ki on PIM1 of 0.121 nM.

For the compound `COC1(C)CC(N)CCN(c2c(NC(=O)c3nc(-c4c(F)cncc4F)sc3N)cnn2C)C1` (racemic) [Example 440, 5-amino-N-[5-(5-amino-3-methoxy-3-methyl-azepan-1-yl)-1-methyl-pyrazol-4-yl]-2-(3,5-difluoro-4-pyridyl)thiazole-4-carboxamide], the half-maximal inhibitory concentration (IC50) is 15.2 nM with BaF3 PIM1 cells (setting [2]) and greater than 25000 nM in the experiment with BaF3 parental cells (setting [3]). Besides, the half-maximal effective concentration (EC50) in experiment [1] was found to be 77.4 nM. Further, on PIM1, the affinity corresponds to a Ki of 0.024 nM.

`Cn1ncc(NC(=O)c2nc(-c3ccccc3F)sc2N)c1N1CCCC(C)(N)CC1` (single isomer, unassigned) [Example 434, 5-amino-N-[5-(4-amino-4-methyl-azepan-1-yl)-1-methyl-pyrazol-4-yl]-2-(2-fluorophenyl)thiazole-4-carboxamide]: the IC50 amounted to 1000 nM in the experiment on BaF3 PIM1 cells (setting [2]) and 15500 nM in the experiment with BaF3 parental cells (setting [3]). This compound gave an inhibitory constant (Ki) on PIM1 of 0.093 nM.

Consider `Nc1sc(-c2c(F)cccc2F)nc1C(=O)Nc1cnn(CC(F)F)c1N1CCCC[C@H](N)C1` [Example 103, (S)-5-amino-N-(5-(3-aminoazepan-1-yl)-1-(2,2-difluoroethyl)-1H-pyrazol-4-yl)-2-(2,6-difluorophenyl)thiazole-4-carboxamide], for which the figures for the concentration for half-maximal inhibition (IC50) in the experiment with BaF3 PIM1 cells (setting [4]) and in the experiment on BaF3 parental cells (setting [5]) were 4200 nM and 8200 nM, respectively. Besides, affinity on PIM1 was put at a Ki of 0.083 nM.

As for `Cn1ncc(NC(=O)c2nc(-c3c(F)cccc3F)sc2N)c1N1CCC(N)CC(F)(F)C1` (centres unmarked) [Example 121, 5-Amino-N-(5-(5-amino-3,3-difluoroazepan-1-yl)-1-methyl-1H-pyrazol-4-yl)-2-(2,6-difluorophenyl)thiazole-4-carboxamide], the IC50 with BaF3 PIM1 cells (setting [4]) amounted to 21 nM; with BaF3 parental cells (setting [5]) it was 4800 nM. Further, the concentration giving a half-maximal response (EC50) in experiment [1] is 50.2 nM.

In the case of `Cn1ncc(NC(=O)c2nc(-c3c(F)cccc3F)sc2N)c1N1CC[C@H](N)CC(F)(F)C1` [Example 166, (S)-5-amino-N-(5-(5-amino-3,3-difluoroazepan-1-yl)-1-methyl-1H-pyrazol-4-yl)-2-(2,6-difluorophenyl)thiazole-4-carboxamide], the IC50 in the experiment on BaF3 PIM1 cells (setting [4]) worked out at 16.5 nM; with BaF3 parental cells (setting [5]) it was 13400 nM. Also, the EC50 in experiment [1] turned out to be 22.9 nM.

On to `Cn1ncc(NC(=O)c2nc(-c3c(F)cccc3F)sc2N)c1N1CC[C@@H](N)CC(F)(F)C1` [Example 167, (R)-5-amino-N-(5-(5-amino-3,3-difluoroazepan-1-yl)-1-methyl-1H-pyrazol-4-yl)-2-(2,6-difluorophenyl)thiazole-4-carboxamide], for which the values for the half-maximal inhibitory concentration (IC50) in the experiment with BaF3 PIM1 cells (setting [4]) and with BaF3 parental cells (setting [5]) were 48.4 nM and greater than 25000 nM, respectively. Also, in experiment [1], the concentration for a half-maximal effect (EC50) is 1400 nM.

With `Cn1ncc(NC(=O)c2nc(-c3c(F)ccc(I)c3F)sc2N)c1N1CC[C@@H](N)CC(F)(F)C1` [Example 346, 5-amino-N-[5-[(5R)-5-amino-3,3-difluoro-azepan-1-yl]-1-methyl-pyrazol-4-yl]-2-(2,6-difluoro-3-iodo-phenyl)thiazole-4-carboxamide], the concentration for half-maximal inhibition (IC50) in the experiment with BaF3 PIM1 cells (setting [2]) came out at 1500 nM; in the experiment on BaF3 parental cells (setting [3]), 1200 nM. This compound had a Ki on PIM1 of 0.002 nM.

For the compound `Cn1ncc(NC(=O)c2nc(-c3c(F)ccc(I)c3F)sc2N)c1N1CC[C@H](N)CC(F)(F)C1` [Example 347, 5-amino-N-[5-[(5S)-5-amino-3,3-difluoro-azepan-1-yl]-1-methyl-pyrazol-4-yl]-2-(2,6-difluoro-3-iodo-phenyl)thiazole-4-carboxamide], the half-maximal inhibitory concentration (IC50) in the experiment with BaF3 PIM1 cells (setting [2]) amounted to 69.2 nM; with BaF3 parental cells (setting [3]), 2400 nM. At PIM1, this compound had a Ki of 0.002 nM.

Turning to `CCn1ncc(NC(=O)c2nc(-c3c(F)cccc3F)sc2N)c1N1CC[C@H](N)[C@@H](F)CC1` [Example 348, 5-amino-N-(5-((4S,5S)-4-amino-5-fluoroazepan-1-yl)-1-ethyl-1H-pyrazol-4-yl)-2-(2,6-difluorophenyl)thiazole-4-carboxamide], the IC50 was determined as 825 nM in the experiment on BaF3 PIM1 cells (setting [2]) and 11200 nM in the experiment on BaF3 parental cells (setting [3]). This compound displayed an inhibition constant Ki on PIM1 of 0.109 nM.

Consider `Cc1cnc(F)c(-c2nc(C(=O)Nc3cnn(C)c3N3CCC[C@H](N)CC3)c(N)s2)c1` [Example 425, 5-amino-N-[5-[(4S)-4-aminoazepan-1-yl]-1-methyl-pyrazol-4-yl]-2-(2-fluoro-5-methyl-3-pyridyl)thiazole-4-carboxamide], for which the IC50 is 2500 nM in the experiment on BaF3 PIM1 cells (setting [2]) and greater than 25000 nM in the experiment with BaF3 parental cells (setting [3]). This compound returned an inhibition constant Ki on PIM1 of 0.144 nM.

As to `Cc1ccncc1-c1nc(C(=O)Nc2cnn(C)c2N2CC[C@@H](N)[C@H](F)CC2)c(N)s1` [Example 428, 5-amino-N-[5-[(4R,5R)-4-amino-5-fluoro-azepan-1-yl]-1-methyl-pyrazol-4-yl]-2-(4-methyl-3-pyridyl)thiazole-4-carboxamide], the half-maximal inhibitory concentration (IC50) was 6600 nM with BaF3 PIM1 cells (setting [2]) and greater than 25000 nM in the experiment on BaF3 parental cells (setting [3]). In addition, on PIM1, the affinity, expressed as Ki, was 0.884 nM.

On to `Cc1c(-c2nc(C(=O)Nc3cnn(C)c3N3CC[C@@H](N)[C@H](F)CC3)c(N)s2)cnn1C` [Example 429, 5-amino-N-[5-[(4R,5R)-4-amino-5-fluoro-azepan-1-yl]-1-methyl-pyrazol-4-yl]-2-(1,5-dimethylpyrazol-4-yl)thiazole-4-carboxamide], for which the IC50 in the experiment on BaF3 PIM1 cells (setting [2]) was 5300 nM; in the experiment on BaF3 parental cells (setting [3]) it was greater than 25000 nM. The compound also gave an inhibition constant (Ki) at PIM1 of 0.315 nM.

With `Cn1ncc(NC(=O)c2nc(-c3cccc(C#N)n3)sc2N)c1N1CC[C@@H](N)[C@H](F)CC1` [Example 432, 5-amino-N-[5-[(4R,5R)-4-amino-5-fluoro-azepan-1-yl]-1-methyl-pyrazol-4-yl]-2-(6-cyano-2-pyridyl)thiazole-4-carboxamide], the IC50 in the experiment with BaF3 PIM1 cells (setting [2]) was found to be 5800 nM; in the experiment on BaF3 parental cells (setting [3]) it was 6300 nM. The compound also displayed a Ki at PIM1 of 1.44 nM.

For the compound `Cn1ncc(NC(=O)c2nc(-c3ccccc3F)sc2N)c1N1CCCC(C)(N)CC1` (centres unmarked) [Example 433, 5-amino-N-[5-(4-amino-4-methyl-azepan-1-yl)-1-methyl-pyrazol-4-yl]-2-(2-fluorophenyl)thiazole-4-carboxamide], the IC50 amounted to 1300 nM in the experiment with BaF3 PIM1 cells (setting [2]) and 11100 nM in the experiment on BaF3 parental cells (setting [3]). Moreover, the Ki at PIM1 came out at 0.024 nM.

`Cn1ncc(NC(=O)c2nc(-c3c(F)cccc3F)sc2N)c1N1CC[C@@H]2OC(=O)N[C@@H]2CC1` [Example 486, N-[5-[(3aR,8aS)-2-oxo-3a,4,5,7,8,8a-hexahydro-3H-oxazolo[4,5-d]azepin-6-yl]-1-methyl-pyrazol-4-yl]-5-amino-2-(2,6-difluorophenyl)thiazole-4-carboxamide]: the 50% inhibitory concentration (IC50) with BaF3 PIM1 cells (setting [2]) was 2300 nM; in the experiment with BaF3 parental cells (setting [3]) it was 11200 nM. The compound also displayed an inhibition constant (Ki) at PIM1 of 0.058 nM.

As to `Cn1ncc(NC(=O)c2nc(-c3c(F)cccc3F)sc2N)c1N1CC[C@@H]2NC(=O)O[C@@H]2CC1` [Example 488, N-[5-[(3aS,8aR)-2-oxo-3a,4,5,7,8,8a-hexahydro-3H-oxazolo[4,5-d]azepin-6-yl]-1-methyl-pyrazol-4-yl]-5-amino-2-(2,6-difluorophenyl)thiazole-4-carboxamide], the IC50 is 2000 nM in the experiment with BaF3 PIM1 cells (setting [2]) and 5400 nM in the experiment with BaF3 parental cells (setting [3]). Also, at PIM1, affinity was put at a Ki of 0.353 nM.

For `[2H]C([2H])([2H])n1ncc(NC(=O)c2nc(-c3c(F)cccc3F)sc2N)c1N1CC[C@H](N)CC(F)(F)C1` [Example 493, 5-amino-N-[5-[(5S)-5-amino-3,3-difluoro-azepan-1-yl]-1-(trideuteriomethyl)pyrazol-4-yl]-2-(2,6-difluorophenyl)thiazole-4-carboxamide], the values for the IC50 in the experiment with BaF3 PIM1 cells (setting [2]) and in the experiment on BaF3 parental cells (setting [3]) were 17.7 nM and 7800 nM, respectively. For the same compound, the EC50 in experiment [1] was 3000 nM.

Take `[2H]C([2H])([2H])n1ncc(NC(=O)c2nc(-c3c(F)cccc3F)sc2N)c1N1CC[C@@H](N)CC(F)(F)C1` [Example 494, 5-amino-N-[5-[(5R)-5-amino-3,3-difluoro-azepan-1-yl]-1-(trideuteriomethyl)pyrazol-4-yl]-2-(2,6-difluorophenyl)thiazole-4-carboxamide]: the IC50 was 13.4 nM in the experiment on BaF3 PIM1 cells (setting [2]) and 8900 nM with BaF3 parental cells (setting [3]). The EC50 in experiment [1] turned out to be 54.6 nM.
